The values that follow come from patent US20200223894A1, “PEPTIDES FOR THE TREATMENT OF CONDITIONS ASSOCIATED WITH ADIPONECTIN DYSFUNCTION” (AUCKLAND UNISERVICES LIMITED, priority 2017, published 2020).

One assay relates to 3T3-L1 adipocytes. The assay can be described thus: Adiponectin levels and oligomeric distribution in conditioned media and cell lysate of peptide-treated adipocytes (Western blotting). To be noted: for amount of HMW adiponectin in the cell lysate / sub-population of the hexametric adiponectin in the cell lysate: compared to IgM-derived cargo peptides; for HMW adiponectin level in conditioned media / hexamer adiponectin level in conditioned media / trimeric adiponectin level in conditioned media: non-reducing SDS-PAGE. In kind it is cell-based, murine. Here is the method:
3T3-L1 cells (ATCC #CL-173, Manassas, Va., USA) were cultured in Dulbecco's Modified Eagle Medium (DMEM) supplemented with 10% fetal bovine serum (FBS) and 1% penicillin-streptomycin-fungisone (PSF) at 37° C. and under 5% CO2 95% humidified air. For differentiation, the confluent 3T3-L1 cultures were supplemented with 10 μg/ml insulin, 0.25 μM dexamethasone and 0.5 mM isobutylmethylxanthine for two days, followed by incubation with 10 μg/ml insulin in the culture medium for another two days. Subsequently, cells were incubated in DMEM with 10% FBS that was changed every two days. Peptide treatment (200 nM in FBS-free medium) was performed in fully differentiated 3T3-L1 adipocyte cultures. After incubation for 24 h, cell lysates and the conditioned medium were collected for subsequent analyses.
(§1) Cells or adipose tissues were washed with phosphate buffer (137 mM NaCl, 2.7 mM KCl, 4.3 mM Na2HPO4, 1.47 mM KH2PO4, pH 7.4) and then solubilized in lysis buffer (25 mM Tris-HCl pH 7.5, 150 mM NaCl, 5 mM NaF, 1% sodium deoxycholate, 1% Nonidet P-40, 1% Triton X-100 plus protease inhibitor mixtures). Equal amounts of lysates (100 μg) were precleared with protein G (Thermo Fisher Scientific, Waltham, Mass., USA) and incubated overnight with specific antibodies at 4° C. with shaking.
(§2) After incubating with protein G for another four hours, the immune-complexes were precipitated by low-speed centrifugation, washed three times with lysis buffer, and eluted in SDS-PAGE sample buffer (50 mM Tris-HCl pH 6.8, 1% SDS, 5% glycerol, 3% β-mercaptomethanol, 0.01% bromophenal blue) or 0.1 M glycine HCl (pH 3.0) and then diluted with non-reducing sample buffer (1% SDS, 5% glycerol, 10 mM Tris-HCl pH6.8) for analyzing adiponectin monomers and oligomers by Western blotting.
Cell lysates, media or serum samples were incubated with non-reducing sample buffer at room temperature for 10 minutes and then separated by 4-20% gradient SDS-PAGE. After transferring to polyvinylidene difluoride (PVDF) membranes, immunoblotting was performed using an in-house antibody against murine adiponectin developed by Antibody and Immunoassay Services, HKU (http://www.pharma.hku.hk/sweb/antibody/PolyclonalAntibodyCont.php?polyclonal_no=60 0005), or antibodies against ERp44 (Santa Cruz Biotechnology, Santa Cruz, Calif.), DsbA-L (Abcam, Cambridge, Mass., USA). Protein bands were quantified by ImageJ and intensities were compared. All experiments were repeated at least six times.
Background: In western blotting, separated proteins are transferred to a membrane and probed.

The subject of assay [1] is C57/BL6 mice fed a high fat diet. The assay can be described thus: Serum total and HMW adiponectin in high fat diet mice after acute peptide injection. Type of assay: in vivo, mouse. Particulars: HFD mice, 10 mg/kg i.p.; for HMW form of adiponectin in serum: normalized to corresponding cargo peptide. Here is the method:
(§3) All experimental protocols were approved by the Committee on the Use of Live Animals for Teaching and Research of the University of Hong Kong and carried out in accordance with ARRIVE (Animal Research: Reporting of In Vivo Experiments) as well as institutional guidelines for the care and use of laboratory animals. Mice of the C57BL/6J background were housed in a room under controlled temperature (23±1° C.) with 12 hour light-dark cycles and free access to water and food. Mice were fed with either standard chow (STC; 3.07 kcal/g, LabDiet 5053, Purina Mills, Richmond, Ind., USA) or high-fat diet (HFD; 4.73 kcal/g containing 45% fat, 20% protein and 35% carbohydrate, D12451, Research diet, N.J., USA) starting from four-weeks old.
Immunoprecipitation and Western blotting studies were performed on serum adipose tissue samples obtained from mice as described above in Example 2. The serum was collected 24 hours after injection.
Mice were administered intraperitoneally with the peptides described in Table 2 (10 mg/kg body weight for acute studies at 16-weeks old or 5 mg/kg/day for four-week chronic treatment at 12-weeks old). Body weights of the animals were monitored on a weekly basis. Fasting blood glucose was determined after 16-hours food starvation (from 6:00 pm to 10:00 am) by a Accu-Check Advantage II Glucometer (Roche Diagnostics Mannheim, Germany). Fasting body fat mass was determined by the minispec Body Composition Analyzer (Bruker Optics Inc., Tex., USA). Circulating and tissue contents of lipids, including triglycerides and total cholesterols, were analyzed using LiquiColor® Triglycerides and Stanbio Cholesterol assay kits, respectively. Serum adiponectin concentrations were determined with an in-house ELISA kit as described (Wang et al., 2006 J Biol Chem 281: 16391-16400). Serum insulin levels were measured with an in-house mouse insulin ELISA kit (Cat No. 32100, http://www.pharma.hku.hk/sweb/antibody/ELISA.php). Homeostatic Model Assessment of […]

The subject of assay [2] is C57/BL6 mice fed a standard chow diet (STC) or high fat diet (HFD). The assay can be described thus: Four-week chronic peptide treatment of mice on STC or HFD: insulin sensitivity and energy homeostasis. In kind it is in vivo, mouse. To be noted: 5 mg/kg/day i.p., four weeks; for HFD-induced hyperglycemia (fasting glucose levels): 16-hours fasting. Here is the method: as §3
Mice were administered intraperitoneally with the peptides described in Table 2 (10 mg/kg body weight for acute studies at 16-weeks old or 5 mg/kg/day for four-week chronic treatment at 12-weeks old). Body weights of the animals were monitored on a weekly basis. Fasting blood glucose was determined after 16-hours food starvation (from 6:00 pm to 10:00 am) by a Accu-Check Advantage II Glucometer (Roche Diagnostics Mannheim, Germany). Fasting body fat mass was determined by the minispec Body Composition Analyzer (Bruker Optics Inc., Tex., USA). Circulating and tissue contents of lipids, including triglycerides and total cholesterols, were analyzed using LiquiColor® Triglycerides and Stanbio Cholesterol assay kits, respectively. Serum adiponectin concentrations were determined with an in-house ELISA kit as described (Wang et al., 2006 J Biol Chem 281: 16391-16400). Serum insulin levels were measured with an in-house mouse insulin ELISA kit (Cat No. 32100, http://www.pharma.hku.hk/sweb/antibody/ELISA.php). Homeostatic Model Assessment of
Insulin Resistance (HOMA-IR) was calculated as fasting insulin (μU/ml)×fasting glucose (mmol/L)/22.5 for comparison as described (Xu et al., 2013). All results were compared between mice treated with control and CPP peptides.

For assay [3], the target named is T1, ERp44-adiponectin interaction (Mus musculus, UniProt Q9D1Q6).
T1 construct: from tissue; host or cells: adipose tissue of C57BL/6J mice on a high-fat diet, treated i.p. with the peptides
T1 sequence (Q9D1Q6 30-406): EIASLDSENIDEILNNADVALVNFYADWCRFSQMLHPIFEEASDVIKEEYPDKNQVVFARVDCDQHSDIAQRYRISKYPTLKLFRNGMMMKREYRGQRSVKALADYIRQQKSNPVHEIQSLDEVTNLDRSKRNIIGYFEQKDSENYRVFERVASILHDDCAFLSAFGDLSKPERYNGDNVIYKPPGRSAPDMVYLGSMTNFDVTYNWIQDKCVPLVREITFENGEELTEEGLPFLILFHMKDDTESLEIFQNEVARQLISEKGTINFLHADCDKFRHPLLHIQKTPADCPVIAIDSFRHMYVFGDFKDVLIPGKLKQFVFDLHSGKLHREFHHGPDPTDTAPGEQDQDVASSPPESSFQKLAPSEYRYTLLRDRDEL
The assay can be described thus: ERp44-adiponectin interaction in mouse adipose tissue lysates by co-immunoprecipitation. In kind it is in vivo. To be noted: HFD mice. Here is the method:
as §1, §2
Cell lysates, media or serum samples were incubated with non-reducing sample buffer at room temperature for 10 minutes and then separated by 4-20% gradient SDS-PAGE. […] Protein bands were quantified by ImageJ and intensities were compared. […]

The target in assay [4] is T2, Recombinant mouse ERp44 (murine ERp44 without the signal sequence, monomeric fraction) (mouse, UniProt Q9D1Q6 30-406).
T2 construct: mature; Cloned into pET28b at the NheI and XhoI sites and expressed in E. coli; The monomer fraction from Superdex-200 was used; Free ERp44 is observed at 46,074 amu in ESI-MS; also called recombinant ERp44
T2 sequence (looked up): T1 sequence (Q9D1Q6 30-406)
The assay can be described thus: ESI-MS of ERp44 (43 uM) incubated with 10-fold excess peptide (430 uM), 4 days, pH 6.5; disulfide-linked complex.

The target of assay [5] is T2, Recombinant mouse ERp44 (murine ERp44 …). Put plainly: ESI-MS, recombinant mouse ERp44 43 uM with 430 uM peptide, 4 days.
Where [6] appears, read: 200 nM peptide, 24 h, cell lysate.
The mark [7] stands for this setting: 200 nM peptide, 24 h, conditioned media, vs corresponding non-CPP cargo peptide.
The mark [8] stands for this setting: serum 24 hours after injection, vs corresponding cargo peptide only group.

For the molecule YGRKKKRRQQRRRDTGGTCY [CPP-M2], the intracellular adiponectin levels result in the assay on 3T3-L1 adipocytes (setting [6]) is “decreased”. In the assay with 3T3-L1 adipocytes (setting [7]), the “increase in total amount of adiponectin secreted in the media” value is reported as around 53%. Also, in the assay on 3T3-L1 adipocytes (200 nM, cell lysate), the “amount of HMW adiponectin in the cell lysate” value was “significantly increased” and the “sub-population of the hexametric adiponectin in the cell lysate” value is “decreased”. In the assay with 3T3-L1 adipocytes (200 nM, conditioned media), the “HMW adiponectin level in conditioned media” value (“HMW adiponectin level” below) was “significantly elevated”, the “hexamer adiponectin level in conditioned media” value is reported as “significantly elevated” and the “trimeric adiponectin level in conditioned media” value (shortened to “trimeric adiponectin level”) is given as “significantly elevated”. The “increase in circulating concentration of adiponectin” value in assay [1] (setting [8]) was around 34%. Moreover, in assay [1], the “HMW form of adiponectin in serum” value is listed as “increased”. Further, in assay [2], the “HFD-induced insulin resistance (calculated HOMA-IR)” value is listed as “significantly blocked”, the “HFD-induced reduction of adiponectin concentrations in serum” value is recorded as “prevented the reduction”, the circulating cholesterol levels result was “significantly reduced” and the circulating triglyceride levels result was “significantly reduced”. In assay [2], the “lipid (triglyceride) accumulation in livers” value is given as “attenuated” and the “HFD-induced hyperglycemia (fasting glucose levels)” value was “significantly blocked”.
YGRKKKRRQQRRRGTCY [CPP-M1]: the intracellular adiponectin levels entry in the assay on 3T3-L1 adipocytes (setting [6]) is “decreased”. For the same molecule, the “increase in total amount of adiponectin secreted in the media” value in the assay with 3T3-L1 adipocytes (setting [7]) is listed as around 45%. For the same molecule, in the assay on 3T3-L1 adipocytes (200 nM, cell lysate), the “amount of HMW adiponectin in the cell lysate” value is recorded as “significantly increased” and the “sub-population of the hexametric adiponectin in the cell lysate” value is “decreased”. In addition, in the assay on 3T3-L1 adipocytes (200 nM, conditioned media), the “HMW adiponectin level” value is “significantly elevated”, the “hexamer adiponectin level in conditioned media” value is “significantly elevated” and the “trimeric adiponectin level” value was “significantly elevated”. In addition, in assay [1] (setting [8]), the “increase in circulating concentration of adiponectin” value is on record as around 28%. Besides, the “HMW form of adiponectin in serum” value in assay [1] is “increased”. In addition, in assay [2], the “HFD-induced insulin resistance (calculated HOMA-IR)” value was “significantly blocked”, the “HFD-induced reduction of adiponectin concentrations in serum” value is recorded as “prevented the reduction”, the circulating cholesterol levels result is reported as “significantly reduced” and the circulating triglyceride levels entry is on record as “significantly reduced”. Also, in assay [2], the “lipid (triglyceride) accumulation in livers” value is “attenuated” and the “HFD-induced hyperglycemia (fasting glucose levels)” value is recorded as “significantly blocked”. In addition, the “body fat mass under HFD” value in assay [2] (compared to M1 cargo peptide) was “significantly decreased”.
Consider YGRKKRRQQRRRKGTCAGWMA [CPP-adiponectin], for which, in the assay on 3T3-L1 adipocytes (setting [6]), the intracellular adiponectin levels entry is reported as “increased”. Further, the “reduction of total amount of adiponectin in the conditioned media” value in the assay with 3T3-L1 adipocytes (setting [7]) is around 16%. Besides, in the assay with 3T3-L1 adipocytes (200 nM, cell lysate), the “oligomeric composition of adiponectin in the cell lysate” value is “shifted towards the trimer”. Also, in the assay with 3T3-L1 adipocytes (200 nM, conditioned media), the “HMW adiponectin level” value is reported as “significantly reduced” and the “trimeric adiponectin level” value is listed as “significantly reduced”. For the same molecule, the “decrease in circulating concentration of adiponectin” value in assay [1] (setting [8]) is around 14%. Also, the “HMW form of adiponectin in serum” value in assay [1] is reported as “significantly decreased”. The “amount of adiponectin bound to ERp44 in mouse adipose tissue” value in assay [3] was “significantly decreased”.

B1: Adiponectin peptide (adiponectin-derived cargo peptide KGTCAGWMA) (peptide)
peptide: KGTCAGWMA
notes: also called adiponectin derived peptide
As to B1, the binding result in assay [4] is on record as “binds”.

B2: M1 (IgM-derived cargo peptide GTCY) (peptide)
peptide: GTCY
For the molecule B2, the binding result in assay [4] is “binds”.

B3: M2 (IgM-derived cargo peptide DTGGTCY) (peptide)
peptide: DTGGTCY
Turning to B3, in assay [5], the binding result is on record as “binds”.
